We go through 16 compounds from patent US8916183B2, “Pesticidal compositions and processes related thereto” (priority 2012, dated 2014).

Holding throughout (assay type): in vivo
The test system of assay [1] is Beet Armyworm (BAW) (Spodoptera exigua). The experiment in a line: Bioassay on beet armyworm (BAW), 128-well diet tray assay. The note with it: Spodoptera exigua; beet armyworm, 50 μg/cm^2; read-out: % Mortality BAW 50 μg/cm^2.
Assay [2] relates to Green Peach Aphid (GPA) (Myzus persicae). The assay is described as follows: Bioassay on green peach aphid (GPA), foliar spray on cabbage seedlings. Conditions: green peach aphid, 200 ppm, read-out: % Mortality GPA 200 ppm. On the procedure:
Certain molecules disclosed in this document were tested against GPA using procedures described in the following example. In the reporting of the results, the “GPA Rating Table” was used (See Table Section).
Cabbage seedlings grown in 3-inch pots, with 2-3 small (3-5 cm) true leaves, were used as test substrate. The seedlings were infested with 20-50 GPA (wingless adult and nymph stages) one day prior to chemical application. Four pots with individual seedlings were used for each treatment. Test compounds (2 mg) were dissolved in 2 mL of acetone/methanol (1:1) solvent, forming stock solutions of 1000 ppm test compound. […] A hand-held aspirator-type sprayer was used for spraying a solution to both sides of […] leaves until runoff. Reference plants (solvent check) were sprayed with the diluent only containing 20% by volume of acetone/methanol (1:1) solvent. Treated plants were held in a holding room for three days at approximately 25° C. and ambient relative humidity (RH) prior to grading. Evaluation was conducted by counting the number of live aphids per plant under a microscope. […] Corrected % Control=100*(X−Y)/X • where • X=No. of live aphids on solvent check plants and • Y=No. of live aphids on treated plants
The results are indicated in the table entitled “Table 5: Biological Results” (See Table Section).

Assay [3] concerns Corn Earworm (CEW) (Helicoverpa zea). The experiment in a line: Bioassay on corn earworm (CEW), 128-well diet tray assay. The note with it: Helicoverpa zea; corn earworm, 50 μg/cm^2; read-out: % Mortality CEW 50 μg/cm^2. In outline: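 Larvae in a 128-well diet tray were held at 25° C under 14:10 light-dark for five to seven days. Percent mortality was scored per well and averaged over eight wells, then reported on a rating scale.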

Turning to `COc1cc(C)c(/N=C(/N/N=C/c2ccc(-c3ncn(-c4ccc(OC(F)(F)F)cc4)n3)cc2)SCOC(=O)C(C)OCC(F)(F)F)c(C)c1` (stereo not drawn) [Compound 38C], the mortality at 50 µg/cm2 in assay [1] and in assay [3] was 50 to 100% each time. For the same compound, the mortality at 200 ppm in assay [2] turned out to be 0%.
Turning to `COc1cc(C)c(/N=C(/N/N=C/c2ccc(-c3ncn(-c4ccc(OC(F)(F)F)cc4)n3)cc2)SCOC(=O)C(C)(C)C)c(C)c1` [Compound 40C], the mortality at 50 µg/cm2 in assay [1] and in assay [3] was 50 to 100% throughout. Also, in assay [2], the mortality at 200 ppm was 0 to 80%.
Regarding `COCCOC(C)C(=O)OCS/C(=N\c1c(C)cccc1C)N/N=C/c1ccc(-c2ncn(-c3ccc(OC(F)(F)F)cc3)n2)cc1` (stereo not drawn) [Compound 41C], the mortality at 50 µg/cm2 in assay [1] and in assay [3] was 50 to 100% in each case. For the same compound, the mortality at 200 ppm in assay [2] came out at 0%.
For the compound `COCCOC(C)C(=O)OCS/C(=N\c1c(C)cc(OC)cc1C)N/N=C/c1ccc(-c2ncn(-c3ccc(OC(F)(F)F)cc3)n2)cc1` (stereo not drawn) [Compound 42C], the mortality at 50 µg/cm2 in assay [1] and in assay [3] was 50 to 100% throughout. For the same compound, in assay [2], the mortality at 200 ppm came out at 0%.
Regarding `COc1cc(C)c(/N=C(/N/N=C/c2ccc(-c3ncn(-c4ccc(OC(F)(F)F)cc4)n3)cc2)SCOC(=O)C2CCCC2)c(C)c1` [Compound 43C], the mortality at 50 µg/cm2 in assay [1] and in assay [3] was 50 to 100% each time. Further, in assay [2], the mortality at 200 ppm fell in the range of 0 to 80%.
With `COc1cc(C)c(/N=C(/N/N=C/c2ccc(-c3ncn(-c4ccc(OC(F)(F)F)cc4)n3)cc2)SCOC(=O)C2CCCO2)c(C)c1` (stereo not drawn) [Compound 44C], the mortality at 50 µg/cm2 in assay [1] and in assay [3] was 50 to 100% throughout. For the same compound, in assay [2], the mortality at 200 ppm came out at 0%.
For `COc1cc(C)c(/N=C(\N/N=C/c2ccc(-c3ncn(-c4ccc(C(F)(F)F)cc4)n3)cc2)SCOC(=O)C(C)C)c(C)c1` [Compound 46C], the mortality at 50 µg/cm2 in assay [1] and in assay [3] was 50 to 100% each time. The mortality at 200 ppm in assay [2] came out at 0%.
For `Cc1cccc(C)c1/N=C(/N/N=C/c1ccc(-c2ncn(-c3ccc(OC(F)(F)F)cc3)n2)cc1)SCC(=O)O` [Compound 47C], the mortality at 50 µg/cm2 in assay [1] and in assay [3] was 50 to 100% throughout. For the same compound, in assay [2], the mortality at 200 ppm fell in the range of 0 to 80%.
Turning to `Cc1cccc(C)c1/N=C(/N/N=C/c1ccc(-c2ncn(-c3ccc(OC(F)(F)C(F)(F)F)cc3)n2)cc1)SCC(=O)O` [Compound 49C], the mortality at 50 µg/cm2 in assay [1] and in assay [3] was 50 to 100% throughout. In assay [2], the mortality at 200 ppm was 0 to 80%.
With `COc1cc(C)c(/N=C(/N/N=C/c2ccc(-c3ncn(-c4ccc(OC(F)(F)C(F)(F)F)cc4)n3)cc2)SCC(=O)O)c(C)c1` [Compound 51C], the mortality at 50 µg/cm2 in assay [1] and in assay [3] was 50 to 100% each time. For the same compound, the mortality at 200 ppm in assay [2] stood at 0%.
With `COc1ccc(C(C)/N=C(/N/N=C/c2ccc(-c3ncn(-c4ccc(OC(F)(F)F)cc4)n3)cc2)SCC(=O)O)cc1` (stereo not drawn) [Compound 52C], the results for the mortality at 50 µg/cm2 in assay [1] and in assay [3] were 0 to 50% and 0%, respectively. The mortality at 200 ppm in assay [2] lay in the range of 0 to 80%.
For the compound `COc1ccc(C(C)/N=C(/N/N=C/c2ccc(-c3ncn(-c4ccc(OC(F)(F)F)cc4)n3)cc2)SCC(=O)O)cc1F` (stereo not drawn) [Compound 53C], the mortality at 50 µg/cm2 was 0 to 50% in assay [1] and 0% in assay [3]. Besides, the mortality at 200 ppm in assay [2] lay within 0 to 80%.
The like results for `CC(/N=C(/N/N=C/c1ccc(-c2ncn(-c3ccc(OC(F)(F)F)cc3)n2)cc1)SCC(=O)O)c1ccccc1` (stereo not drawn) [Compound 54C] were, in that order, 50 to 100%, 50 to 100% and 0%.
The like results for `Cc1cccc(C)c1/N=C(/N/N=C/c1ccc(-c2ncn(-c3ccc(OC(F)(F)F)cc3)n2)cc1)SCC(=O)NCC(C)C` [Compound 55C] were, in that order, 50 to 100%, 50 to 100% and 0%.
For the compound `Cc1cccc(C)c1/N=C(/N/N=C/c1ccc(-c2ncn(-c3ccc(OC(F)(F)F)cc3)n2)cc1)SCC(=O)N1CCN(C(=O)OC(C)(C)C)CC1` [Compound 57C], the mortality at 50 µg/cm2 in assay [1] and in assay [3] was 50 to 100% in each case. Also, the mortality at 200 ppm in assay [2] fell in the range of 0 to 80%.
For the compound `Cc1cccc(C)c1/N=C(/N/N=C/c1ccc(-c2ncn(-c3ccc(OC(F)(F)F)cc3)n2)cc1)SCC(=O)NCCCNC(=O)OC(C)(C)C` [Compound 58C], the mortality at 50 µg/cm2 in assay [1] and in assay [3] was 50 to 100% throughout. Further, the mortality at 200 ppm in assay [2] fell in the range of 0 to 80%.
